Legend:
[1] = target: T1, human thyroid receptor beta ligand-binding domain (LBD) (Homo sapiens, UniProt P10828); assay: TR-FRET thyroid receptor beta coactivator assay (THR biochemical assay, Assay 1); conditions: for EC50: THR-beta, TR-FRET coactivator assay, read-out: Activity category Assay 1 (EC50, THR-beta agonist); for Emax: Table 5, Assay 1, THRβ, read-out: Activity category Assay 1 THRβ (Emax)
T1 construct: purchased Invitrogen
T1 sequence (P10828 217-461 limits assumed): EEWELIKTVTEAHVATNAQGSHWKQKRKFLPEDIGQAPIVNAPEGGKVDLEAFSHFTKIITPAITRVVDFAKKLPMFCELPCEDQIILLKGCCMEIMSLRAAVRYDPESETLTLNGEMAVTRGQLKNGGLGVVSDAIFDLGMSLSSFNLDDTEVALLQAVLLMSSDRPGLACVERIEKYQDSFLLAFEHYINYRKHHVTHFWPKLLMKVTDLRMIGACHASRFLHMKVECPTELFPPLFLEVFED
Outline: (§1)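 GST-tagged human TRβ or TRα LBD, 1 nM final (stated for β), with fluorescein-SRC2-2 coactivator peptide (200 nM) and Tb-anti-GST antibody (2 nM). Agonists serially diluted, 1% DMSO final. 1 h incubation at rt in the dark; TR-FRET read as rise in fluorescein and drop in terbium emission.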

[2] = target: T2, human thyroid receptor alpha ligand-binding domain (LBD) (Homo sapiens, UniProt P10827); assay: TR-FRET thyroid receptor alpha coactivator assay (THR biochemical assay, Assay 1); conditions: for EC50: Table 4, THR-alpha, read-out: Activity category Assay 1 (EC50, THR-alpha agonist activity); for Emax: Table 5, THRα, read-out: Activity category Assay 1 THRα (Emax)
T2 construct: purchased Invitrogen
Outline: as §1

[3] = target: T3, THR beta (Homo sapiens, UniProt P10828); assay: HEK293T THR beta/RXR luciferase reporter assay (Assay 2); format: cell-based; conditions: for Emax: HEK-293T, Table 5, Assay 2, THRβ, read-out: Activity category Assay 2 THRβ (Emax); for EC50: THR-beta, HEK293T reporter assay, read-out: Activity category Assay 2 (EC50, THR-beta agonist)
T3 construct: expressed in transfected cells; host or cells: HEK293T (ATCC CRL-3216)
T3 sequence (P10828 1-461): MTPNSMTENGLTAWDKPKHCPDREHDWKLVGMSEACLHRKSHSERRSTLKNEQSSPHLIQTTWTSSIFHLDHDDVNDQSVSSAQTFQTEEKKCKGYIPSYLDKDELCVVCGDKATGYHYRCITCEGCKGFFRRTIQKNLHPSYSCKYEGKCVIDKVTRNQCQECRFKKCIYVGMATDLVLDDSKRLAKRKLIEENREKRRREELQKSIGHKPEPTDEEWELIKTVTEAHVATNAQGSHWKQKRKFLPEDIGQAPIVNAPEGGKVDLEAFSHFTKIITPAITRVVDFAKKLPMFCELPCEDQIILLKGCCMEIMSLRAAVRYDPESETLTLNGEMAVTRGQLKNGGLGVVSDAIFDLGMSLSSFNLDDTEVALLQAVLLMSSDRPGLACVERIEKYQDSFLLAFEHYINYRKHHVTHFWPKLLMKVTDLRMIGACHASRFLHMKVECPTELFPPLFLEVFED
T3 sequence (P19793 1-462 partner): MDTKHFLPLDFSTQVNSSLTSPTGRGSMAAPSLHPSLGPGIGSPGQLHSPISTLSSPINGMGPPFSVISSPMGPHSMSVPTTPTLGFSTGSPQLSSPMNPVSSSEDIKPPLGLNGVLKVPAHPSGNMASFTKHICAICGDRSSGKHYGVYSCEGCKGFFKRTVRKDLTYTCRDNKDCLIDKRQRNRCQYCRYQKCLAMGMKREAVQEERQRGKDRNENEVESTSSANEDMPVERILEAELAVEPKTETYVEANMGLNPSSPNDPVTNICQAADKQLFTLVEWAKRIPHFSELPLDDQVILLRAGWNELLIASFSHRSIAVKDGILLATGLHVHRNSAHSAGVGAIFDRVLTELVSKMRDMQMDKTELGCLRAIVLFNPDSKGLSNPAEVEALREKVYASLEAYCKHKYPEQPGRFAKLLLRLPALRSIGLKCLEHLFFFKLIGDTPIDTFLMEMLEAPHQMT
Outline: (§2)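 HEK293T cells transiently transfected with TRE-luciferase reporter, RXR, and THR alpha or THR beta plasmid; ten five-fold compound dilutions from DMSO added for 18-24 h. One-Glo luminescence read; percent agonism normalized between negative and positive controls.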

[4] = target: T4, THR alpha (Homo sapiens, UniProt P10827); assay: HEK293T THR alpha/RXR luciferase reporter assay (Assay 2); format: cell-based; conditions: Assay 2; for Emax: HEK-293T, Table 5, THRα, read-out: Activity category Assay 2 THRα (Emax); for EC50: Table 4, THR-alpha, read-out: Activity category Assay 2 (EC50, THR-alpha agonist activity)
T4 construct: expressed in transfected cells; host or cells: HEK293T (ATCC CRL-3216)
T4 sequence (P10827 1-410 isoform P10827-2): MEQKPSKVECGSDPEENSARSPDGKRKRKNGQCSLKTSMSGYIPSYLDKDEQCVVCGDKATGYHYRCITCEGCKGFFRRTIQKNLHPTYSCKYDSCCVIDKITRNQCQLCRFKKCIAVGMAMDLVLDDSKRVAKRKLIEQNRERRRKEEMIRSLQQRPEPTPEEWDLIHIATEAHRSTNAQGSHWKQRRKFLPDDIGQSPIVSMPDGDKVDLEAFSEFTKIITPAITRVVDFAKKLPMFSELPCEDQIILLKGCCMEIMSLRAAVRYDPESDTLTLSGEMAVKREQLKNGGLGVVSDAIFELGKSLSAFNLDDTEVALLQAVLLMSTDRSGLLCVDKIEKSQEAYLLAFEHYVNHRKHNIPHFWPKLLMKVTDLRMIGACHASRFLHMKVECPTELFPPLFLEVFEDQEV
T4 sequence (P19793 1-462 partner): T3 sequence (P19793 1-462 partner)
Outline: as §2

Row | Compound | EC50 [1] [nM] | Emax [1] [%] | EC50 [2] [nM] | Emax [2] [%] | Emax [3] [%] | EC50 [3] [nM] | Emax [4] [%] | EC50 [4] [nM]
1 | Nc1nn(-c2cc(Cl)c(Oc3cc([C@H]4C[C@H](O)C4)c(=O)[nH]n3)c(Cl)c2)c(=O)[nH]c1=O [Compound 88-A, 6-Amino-2-[3,5-dichloro-4-([6-oxo-5-[(1r,3r)-3-hydroxycyclobutyl]-1H-pyridazin-3-yl]oxy)phenyl]-4H-1,2,4-triazine-3,5-dione] | 1000 to 25000 | < 50 | > 25000 | < 50 | < 50 | > 10000 | > 75 | > 10000
2 | Nc1nn(-c2cc(Cl)c(Oc3cc(C4CCOCC4)c(=O)[nH]n3)c(Cl)c2)c(=O)[nH]c1=O [Compound 59, 6-amino-2-(3,5-dichloro-4-[[5-(oxan-4-yl)-6-oxo-1H-pyridazin-3-yl]oxy]phenyl)-4H-1,2,4-triazine-3,5-dione] | 1000 to 25000 | < 50 | 1000 to 25000 | < 50 | > 75 | 1000 to 10000 | 50 to 75 | > 10000
3 | Nc1nn(-c2cc(Cl)c(Oc3n[nH]c(=O)cc3-c3ccccc3)c(Cl)c2)c(=O)[nH]c1=O [Compound 63-A, 6-amino-2-(3,5-dichloro-4-((6-oxo-4-phenyl-1,6-dihydropyridazin-3-yl)oxy)phenyl)-1,2,4-triazine-3,5(2H,4H)-dione] | > 25000 | < 50 | > 25000 | < 50 | < 50 | > 10000 | < 50 | > 10000
4 | Cc1cc(-n2nc(N)c(=O)[nH]c2=O)cc(C)c1Oc1cc(C(C)C)c(=O)[nH]n1 [Compound 38, 6-Amino-2-[4-[(5-isopropyl-6-oxo-1H-pyridazin-3-yl)oxy]-3,5-dimethylphenyl]-4H-1,2,4-triazine-3,5-dione] | 250 to 1000 | 50 to 75 | 1000 to 25000 | > 75 | > 75 | 250 to 1000 | < 50 | > 10000
5 | Nc1nn(-c2cc(Cl)c(Oc3cc(C4(F)CCCC4)c(=O)[nH]n3)c(Cl)c2)c(=O)[nH]c1=O [Compound 144, 6-amino-2-(3,5-dichloro-4-[[5-(1-fluorocyclopentyl)-6-oxo-1H-pyridazin-3-yl]oxy]phenyl)-4H-1,2,4-triazine-3,5-dione] | 50 to 250 | < 50 | 250 to 1000 | < 50 | 50 to 75 | 250 to 1000 | 50 to 75 | 1000 to 10000
6 | Nc1nn(-c2cc(Cl)c(Oc3cc(C4CCC(F)(F)CC4)c(=O)[nH]n3)c(Cl)c2)c(=O)[nH]c1=O [Compound 97] | 250 to 1000 | < 50 | 1000 to 25000 | < 50 | < 50 | 1000 to 10000 | < 50 | > 10000
7 | Nc1nn(-c2cc(Cl)c(Oc3n[nH]c(=O)cc3-c3cc4ccccc4cn3)c(Cl)c2)c(=O)[nH]c1=O [Compound 134] | < 50 | < 50 | 250 to 1000 | < 50 | 50 to 75 | 250 to 1000 | < 50 | > 10000
8 | CC(C)c1cc(Oc2c(Cl)cc(-n3nc(N)c(=O)[nH]c3=O)cc2Br)n[nH]c1=O [Compound 80, 6-Amino-2-(3-bromo-5-chloro-4-((5-isopropyl-6-oxo-1,6-dihydropyridazin-3-yl)oxy)phenyl)-1,2,4-triazine-3,5(2H,4H)-dione] | < 50 | 50 to 75 | 50 to 250 | 50 to 75 | > 75 | < 50 | > 75 | 50 to 250
9 | Nc1nn(-c2cc(Cl)c(Oc3cc(C4CCCCC4)c(=O)[nH]n3)c(Cl)c2)c(=O)[nH]c1=O [Compound 58] | < 50 | < 50 | 250 to 1000 | < 50 | > 75 | 50 to 250 | 50 to 75 | 250 to 1000

Results, then the compound that gave them:

Row | EC50 [1] [nM] | Emax [1] [%] | EC50 [2] [nM] | Emax [2] [%] | Emax [3] [%] | EC50 [3] [nM] | Emax [4] [%] | EC50 [4] [nM] | Compound
10 | < 50 | < 50 | 250 to 1000 | < 50 | 50 to 75 | 50 to 250 | < 50 | 250 to 1000 | Cc1cccc(-c2cc(Oc3c(Cl)cc(-n4nc(N)c(=O)[nH]c4=O)cc3Cl)n[nH]c2=O)c1F [Compound 64, 6-amino-2-(3,5-dichloro-4-[[5-(2-fluoro-3-methylphenyl)-6-oxo-1H-pyridazin-3-yl]oxy]phenyl)-4H-1,2,4-triazine-3,5-dione]
11 | < 50 | < 50 | 1000 to 25000 | 50 to 75 | 50 to 75 | 50 to 250 | < 50 | > 10000 | O=c1cnn(-c2cc(Cl)c(Oc3cc(-c4ccc5c(c4)CCCC5)c(=O)[nH]n3)c(Cl)c2)c(=O)[nH]1 [Compound 91, 2-(3,5-dichloro-4-((6-oxo-5-(5,6,7,8-tetrahydronaphthalen-2-yl)-1,6-dihydropyridazin-3-yl)oxy)phenyl)-1,2,4-triazine-3,5(2H,4H)-dione]
12 | < 50 | 50 to 75 | 50 to 250 | < 50 | 50 to 75 | < 50 | 50 to 75 | 50 to 250 | Nc1nn(-c2cc(Cl)c(Oc3cc(-c4cccc(OC(F)F)c4)c(=O)[nH]n3)c(Cl)c2)c(=O)[nH]c1=O [Compound 118]
13 | < 50 | < 50 | 1000 to 25000 | < 50 | 50 to 75 | 50 to 250 | < 50 | 250 to 1000 | Nc1nn(-c2cc(Cl)c(Oc3cc(C4(c5ccccc5)CC4)c(=O)[nH]n3)c(Cl)c2)c(=O)[nH]c1=O [Compound 107]
14 | < 50 | 50 to 75 | > 25000 | < 50 | > 75 | 50 to 250 | > 75 | 250 to 1000 | Cc1cc(-n2nc(C#N)c(=O)[nH]c2=O)cc(C)c1Cc1ccc2[nH]cc(C(C)C)c2c1 [Compound 3, 2-(4-((3-isopropyl-1H-indol-5-yl)methyl)-3,5-dimethylphenyl)-3,5-dioxo-2,3,4,5-tetrahydro-1,2,4-triazine-6-carbo-nitrile]
15 | < 50 | < 50 | > 25000 | < 50 | 50 to 75 | 1000 to 10000 | < 50 | > 10000 | N#Cc1nn(-c2cc(Cl)c(Oc3ccc4[nH]cc(Cc5ccccc5)c4c3)c(Cl)c2)c(=O)[nH]c1=O [Compound 46, 2-[4-[(3-benzyl-1H-indol-5-yl)oxy]-3,5-dichlorophenyl]-3,5-dioxo-4H-1,2,4-triazine-6-carbonitrile]

— patent publication US12180192B2, “Modulators of THR-β and methods of use thereof” (ALIGOS THERAPEUTICS, INC., priority 2019, dated 2024)
